# According to patent US20090221624A1, “4-AMINOQUINOLINE COMPOUNDS FOR TREATING VIRUS-RELATED CONDITIONS” (priority 2005, published 2009):
# Assays:
# [1] = test system: EBOV minigenome; experiment: microbe, parasite or virus in culture; format: cell-based, Ebola virus; conditions: Zaire ebolavirus; for inhibition at 25 µM: 24 h, read-out: EBOV Inh; for EC50: read-out: EBOV EC50
# [2] = test system: YFV (YF-hRuPac cells); experiment: microbe, parasite or virus in culture; format: cell-based, yellow fever virus; conditions: for inhibition at 25 µM / EC50: Yellow fever virus; for inhibition at 25 µM: 24 h, read-out: YFV Inh; for EC50: read-out: YFV EC50
# [3] = test system: WNV (WN-hRuPac cells); experiment: WNV antiviral activity, WN-hRuPac cells, Renilla luciferase; format: cell-based, West Nile virus; conditions: for EC50 / inhibition at 25 µM: West Nile virus; for EC50: Secondary Data, WNV, read-out: WNV EC50; for inhibition at 25 µM: primary screening, 25 μM final concentration, 24 hours, percent inhibition of viral replication, read-out: WNV Inh; for WNV TI: therapeutic index CC50/EC50, WNV
# [4] = in vitro
# [5] = test system: SINV (SR19-F-luc cells); experiment: SINV antiviral activity, SR19-F-luc cells, Firefly luciferase; format: cell-based; conditions: Sindbis virus; for inhibition at 25 µM: primary screening, 25 μM final concentration, 24 hours, percent inhibition of viral replication, read-out: SINV Inh; for EC50: secondary screening, SR19-F-luc cells
# [6] = test system: HCV replicon (Clone A cells, Huh7, subgenomic hepatits C virus RNA); experiment: HCV Neo screening assay (HCV replicon, NPTII ELISA); format: cell-based, hepatitis C virus; conditions: for EC50 / inhibition at 25 µM: Hepatitis C virus, Huh-7; for EC50: Secondary Data, HCV; for inhibition at 25 µM: primary screening, 25 μM final concentration, 24 hours, percent inhibition of viral replication, read-out: HCV Inh; for HCV TI: therapeutic index CC50/EC50, HCV
# [7] = test system: RSV minigenome; experiment: RSV minigenome-dependent β-galactosidase expression assay (RSV β-Gal); format: cell-based, respiratory syncytial virus; conditions: for EC50 / inhibition at 25 µM: human respiratory syncytial virus; for EC50: Secondary Data, RSV, read-out: RSV EC50; for inhibition at 25 µM: primary screening, 25 μM final concentration, 24 hours, percent inhibition of viral replication, read-out: RSV Inh; for RSV TI: therapeutic index CC50/EC50, RSV
SMILES,inhibition at 25 µM [1],YFV TI [2],inhibition at 25 µM [2],EC50 [2],EC50 [3],inhibition at 25 µM [3],WNV TI [3],CC50 ([4]; DNG CC50),CC50 ([4]; EBOV CC50),CC50 ([4]; HCV CC50),CC50 ([4]; RSV CC50),CC50 ([4]; SINV CC50),CC50 ([4]; WNV CC50),CC50 ([4]; YFV CC50),inhibition at 25 µM [5],EC50 [6],inhibition at 25 µM [6],EC50 [7],inhibition at 25 µM [7],RSV TI [7],further results
Cc1ccc(Nc2cc(C)nc3ccc(C)cc23)cc1 [Compound 6],42.7%,2.73,77.7%,12.9 µM,38.7 µM,79.1%,0.91,35.2 µM,35.2 µM,11.7 µM,35.2 µM,35.2 µM,35.2 µM,35.2 µM,76.8%,14 µM,187%,9.86 µM,91.2%,3.57,EC50 [5]: 2.3 µM; HCV TI [6]: 0.84
Cc1cccc(Nc2c3c(nc4ccccc24)CCC3)c1 [Compound 11],62.7%,5.74,79.1%,5.01 µM,9.79 µM,75%,2.94,28.8 µM,28.8 µM,9.67 µM,28.8 µM,28.8 µM,28.8 µM,28.8 µM,81.7%,3.37 µM,143%,2.9 µM,99.5%,9.91,EC50 [1]: 25.9 µM; EC50 [5]: 2.8 µM; HCV TI [6]: 2.87
CCOC(=O)c1cnc2c(Cl)c(Cl)ccc2c1NCc1ccco1 [Compound 19],0.97%,7.98,93.2%,2.62 µM,3.98 µM,80.6%,5.25,20.9 µM,20.9 µM,,20.9 µM,20.9 µM,20.9 µM,20.9 µM,11.9%,,50.9%,1.77 µM,82.3%,11.81,EC50 [1]: 75 µM
Cc1ccc(Nc2c3c(nc4ccc(C)cc24)CCC3)cc1 [Compound 28],19.2%,6.45,75%,6.79 µM,17.4 µM,75.2%,2.52,43.8 µM,43.8 µM,6.82 µM,43.8 µM,43.8 µM,43.8 µM,43.8 µM,81.3%,7.47 µM,155%,4.58 µM,93.7%,9.56,EC50 [5]: 2.73 µM; HCV TI [6]: 0.91
Cc1cc(Nc2ccc(C)c(Cl)c2)c2cccc(C)c2n1 [Compound 50],42.6%,19.41,92.2%,3.41 µM,6.3 µM,82%,10.51,66.2 µM,66.2 µM,7.32 µM,66.2 µM,66.2 µM,66.2 µM,66.2 µM,65.8%,8.62 µM,138%,6.76 µM,85.5%,9.79,HCV TI [6]: 0.85
CCOc1ccc2nc(C)cc(Nc3ccc(Cl)cc3)c2c1 [Compound 59],92.2%,4.82,84.6%,4.4 µM,10.9 µM,83.7%,1.94,21.2 µM,21.2 µM,7.45 µM,21.2 µM,21.2 µM,21.2 µM,21.2 µM,93.5%,6.07 µM,140%,3.26 µM,99.7%,6.5,EC50 [1]: 3.23 µM; HCV TI [6]: 1.23
